{
  "source": "patent US20120258974A1",
  "about": "“USE OF A2B ADENOSINE RECEPTOR ANTAGONISTS FOR TREATING HEART FAILURE AND ARRHYTHMIA IN POST-MYOCARDIAL INFARCTION PATIENTS” (GILEAD SCIENCES, INC., priority 2011, published 2012)",
  "key": {"[1]": {"test_system": "CD1 mice with experimental AMI (permanent coronary artery ligation)", "assay": "Survival after coronary artery ligation surgery (Example 4)", "format": "in vivo, mouse", "conditions": "P=0.14; vehicle 50%", "experimental": "Adult out-bred male CD1 mice (8-12 weeks of age) were supplied by Harlan Sprague Dawley (Indianapolis, Ind.). The experiments were conducted under the guidelines of laboratory animals for biomedical research published by National Institutes of Health (No. 85-23, revised 1996). The study protocol was approved by the Virginia Commonwealth University Institutional Animal Care and Use Committee. Experimental AMI was induced by permanent coronary artery ligation in order to induce a large non-reperfused infarct involving approximately 30% of the left ventricle and leading to an ischemic dilated cardiomyopathy (Mezzaroma et al. Proc Natl Acad Sci 2011—in press and Abbate et al. Circulation 2008; 117:2670-83). Briefly, mice were orotracheally intubated under anesthesia (pentobarbital 50 to 70 mg/kg), placed in the right lateral decubitus position, then subjected to a left thoracotomy, pericardiectomy, and ligation of the proximal left coronary artery. The chest was closed and the animals were allowed to recover. […]\nDifferences between the groups were analyzed using the one-way ANOVA followed by Bonferroni test. Changes in repeated measures of echocardiographic data were analyzed using the random effects ANOVA for repeated-measures to determine the main effect of time, group, and time-by-group interaction. […]"}, "ob/ob model mice": {"test_system": "ob/ob model mice", "assay": "Inflammatory biomarker expression in ob/ob mice after 28-day dosing (Example 5)", "format": "in vivo, mouse", "experimental": "The A2B antagonist, Compound A (3 mg/kg/day or 10 mg/kg/day), was given to 6 weeks old ob/ob model mice for 28 days. At the end of the 28-day dosing, expression of a number of inflammatory biomarkers, MCP-1, IL-1b, IL-2 and IL-6, were measured in these mice as compared to control (vehicle)."}, "[2]": {"test_system": "rats with MI (25 minutes coronary occlusion followed by reperfusion)", "assay": "Rat model of post-MI remodeling: serial echocardiograms (Example 6)", "format": "in vivo", "experimental": "(§1) The effects of Compound A in a rat model of post-MI remodeling and VT were determined. MI was caused by 25 minutes occlusion at the left anterior descending coronary ligation followed by reperfusion. One week later, rats were administered either vehicle or Compound A (100 mg/kg) once daily by oral gavage. Serial echocardiograms (ECHOs) to measure LV ejection fraction (LVEF), stroke volume and LV end systolic volume (LVESV) were obtained at baseline, 1 week and 5 week post-MI. Electrophysiological studies, optical mapping, histology and biomarker analysis were conducted at 5 week post-MI."}, "[3]": {"test_system": "rats with MI (25 minutes coronary occlusion followed by reperfusion)", "assay": "VT inducibility in rat model of post-MI remodeling (Example 6)", "format": "in vivo", "conditions": "5 weeks post-MI; total N 11", "experimental": "as §1\nVentricular tachycardia (VT) is a common cause of mortality in post-MI patients, even with current coronary revascularization treatment. In this rat model of post-MI remodeling, VT was consistently inducible in more than half of the animals. Thus, the effect of Compound A in VT inducibility was determined at 5 weeks post-MI."}, "[4]": {"test_system": "rats with MI (25 minutes coronary occlusion followed by reperfusion)", "assay": "Conduction velocities in LV myocardium, optical mapping, rat post-MI model (Example 6)", "format": "in vivo", "conditions": "5 week post-MI", "experimental": "as §1\nAbnormal electrical impulse conduction in the infarct border zone (IBZ) is important in the pathogenesis of post-MI arrhythmias. As shown in the conduction vector maps (FIG. 13A-B), the vehicle control group has much slower conduction velocity than the Compound A treated animals. To quantify the impact of Compound A on conduction properties, conduction velocities (CVs) were measured for infarct, border, and normal zones of LV myocardium. CVs in normal zones were fastest among all zones and were similar between placebo and Compound A groups (FIG. 14A). […] Finally, CVs in IBZs of both groups were in between those of non-infarct and infarct zones."}, "[5]": {"conditions": "3 mg/kg/day or 10 mg/kg/day for 28 days, vs vehicle"}},
  "data": [
    {"smiles": "CCCn1c(=O)c2[nH]c(-c3cnn(Cc4cccc(C(F)(F)F)c4)c3)nc2n(CC)c1=O", "note": "[Compound A, 3-ethyl-1-propyl-8-(1-(3-(trifluoromethyl)benzyl)-1H-pyrazol-4-yl)-1H-purine-2,6(3H,7H)-dione]", "values": [
      {"measurement": "mice alive at 28 days after coronary artery ligation surgery", "setting": "[1]", "result": 75, "unit": "%"},
      {"measurement": "expression of IL-1b", "setting": "ob/ob model mice; [5]", "result": "went down"},
      {"measurement": "expression of IL-2", "setting": "ob/ob model mice; [5]", "result": "went down"},
      {"measurement": "expression of IL-6", "setting": "ob/ob model mice; [5]", "result": "went down"},
      {"measurement": "expression of MCP-1", "setting": "ob/ob model mice; [5]", "result": "went down"},
      {"measurement": "reduction of IL-1b expression", "setting": "ob/ob model mice; 10 mg/kg/day group, 28 days", "result": "statistically significant"},
      {"measurement": "reduction of MCP-1 expression", "setting": "ob/ob model mice; 10 mg/kg/day group, 28 days", "result": "statistically significant"},
      {"measurement": "increase in LVESV", "setting": "[2]; 100 mg/kg once daily oral gavage from 1 week post-MI", "result": "significantly reduced"},
      {"measurement": "LVEF", "setting": "[2]; 1 week post-MI (start of dosing), Compound A group", "result": "53.1±3.2", "unit": "%"},
      {"measurement": "LVEF", "setting": "[2]; 5 weeks post-MI, 100 mg/kg once daily oral gavage from 1 week post-MI, vehicle 40.7±2.2", "result": "55.6±2.6", "unit": "%"},
      {"measurement": "No VT (number of animals)", "setting": "[3]", "result": 10},
      {"measurement": "VT (number of animals)", "setting": "[3]", "result": 1},
      {"measurement": "conduction velocities in normal zones", "setting": "[4]; vs placebo", "result": "similar"},
      {"measurement": "conduction velocities in IBZs", "setting": "[4]; vs placebo control", "result": "significantly faster"},
      {"measurement": "conduction velocities in infarct zones", "setting": "[4]; vs placebo control", "result": "significantly improved"}
    ]}
  ]
}
